Measurements: the NIST ThermoML archive (doi:10.1016/j.jct.2013.09.039)
± gives the expanded uncertainty stated by the source.

Assay: xn = mol fraction of the nth substance listed
Details: Liquid, Vibrating tube method

SMILES: Cc1ccc(C)cc1 [1,4-dimethylbenzene] + CCCCCCCCCC
- mass density (298.15 K, 20000 kPa, x2 = 0.0513): 860 ± 4 kg/m3
- mass density (298.15 K, 20000 kPa, x2 = 0.0971): 851.2 ± 4 kg/m3
- mass density (298.15 K, 20000 kPa, x2 = 0.1962): 833.8 ± 4 kg/m3
- mass density (298.15 K, 20000 kPa, x2 = 0.2932): 818.4 ± 4 kg/m3
- mass density (298.15 K, 20000 kPa, x2 = 0.3942): 806 ± 4 kg/m3
- mass density (298.15 K, 20000 kPa, x2 = 0.4987): 790.4 ± 4 kg/m3
- mass density (298.15 K, 20000 kPa, x2 = 0.5563): 783.6 ± 4 kg/m3
- mass density (298.15 K, 20000 kPa, x2 = 0.5965): 778.8 ± 4 kg/m3
- mass density (298.15 K, 20000 kPa, x2 = 0.7018): 767.7 ± 4 kg/m3
- mass density (298.15 K, 20000 kPa, x2 = 0.8047): 757.4 ± 4 kg/m3
- mass density (298.15 K, 20000 kPa, x2 = 0.8975): 748.2 ± 4 kg/m3
- mass density (298.15 K, 20000 kPa, x2 = 0.9474): 744.7 ± 4 kg/m3
- mass density (298.15 K, 30000 kPa, x2 = 0.0513): 866.2 ± 4 kg/m3
- mass density (298.15 K, 30000 kPa, x2 = 0.0971): 857.6 ± 4 kg/m3
- mass density (298.15 K, 30000 kPa, x2 = 0.1962): 840.2 ± 4 kg/m3
- mass density (298.15 K, 30000 kPa, x2 = 0.2932): 824.7 ± 4 kg/m3
- mass density (298.15 K, 30000 kPa, x2 = 0.3942): 812.4 ± 4 kg/m3
- mass density (298.15 K, 30000 kPa, x2 = 0.4987): 796.8 ± 4 kg/m3
- mass density (298.15 K, 30000 kPa, x2 = 0.5563): 789.9 ± 4 kg/m3
- mass density (298.15 K, 30000 kPa, x2 = 0.5965): 785.2 ± 4 kg/m3
- mass density (298.15 K, 30000 kPa, x2 = 0.7018): 774 ± 4 kg/m3
- mass density (298.15 K, 30000 kPa, x2 = 0.8047): 763.7 ± 4 kg/m3
- mass density (298.15 K, 30000 kPa, x2 = 0.8975): 755.2 ± 4 kg/m3
- mass density (298.15 K, 30000 kPa, x2 = 0.9474): 750.9 ± 4 kg/m3
- mass density (298.15 K, 40000 kPa, x2 = 0.0513): 872.1 ± 4 kg/m3
- mass density (298.15 K, 40000 kPa, x2 = 0.0971): 863.4 ± 4 kg/m3
- mass density (298.15 K, 40000 kPa, x2 = 0.1962): 846 ± 4 kg/m3
- mass density (298.15 K, 40000 kPa, x2 = 0.2932): 830.4 ± 4 kg/m3
- mass density (298.15 K, 40000 kPa, x2 = 0.3942): 818.2 ± 4 kg/m3
- mass density (298.15 K, 40000 kPa, x2 = 0.4987): 802.6 ± 4 kg/m3
- mass density (298.15 K, 40000 kPa, x2 = 0.5563): 795.7 ± 4 kg/m3
- mass density (298.15 K, 40000 kPa, x2 = 0.5965): 791.1 ± 4 kg/m3
- mass density (298.15 K, 40000 kPa, x2 = 0.7018): 779.8 ± 4 kg/m3
- mass density (298.15 K, 40000 kPa, x2 = 0.8047): 769.5 ± 4 kg/m3
- mass density (298.15 K, 40000 kPa, x2 = 0.8975): 761.6 ± 4 kg/m3
- mass density (298.15 K, 40000 kPa, x2 = 0.9474): 757.2 ± 4 kg/m3
- mass density (308.15 K, 100 kPa, x2 = 0.0513): 837.2 ± 4 kg/m3
- mass density (308.15 K, 100 kPa, x2 = 0.0971): 828.6 ± 4 kg/m3
- mass density (308.15 K, 100 kPa, x2 = 0.1962): 811.1 ± 4 kg/m3
- mass density (308.15 K, 100 kPa, x2 = 0.2932): 795.7 ± 4 kg/m3
- mass density (308.15 K, 100 kPa, x2 = 0.3942): 783.5 ± 4 kg/m3
- mass density (308.15 K, 100 kPa, x2 = 0.4987): 768.1 ± 4 kg/m3
- mass density (308.15 K, 100 kPa, x2 = 0.5563): 761 ± 4 kg/m3
- mass density (308.15 K, 100 kPa, x2 = 0.5965): 757 ± 4 kg/m3
- mass density (308.15 K, 100 kPa, x2 = 0.7018): 746.3 ± 4 kg/m3
- mass density (308.15 K, 100 kPa, x2 = 0.8047): 736.1 ± 4 kg/m3
- mass density (308.15 K, 100 kPa, x2 = 0.8975): 727.9 ± 4 kg/m3
- mass density (308.15 K, 100 kPa, x2 = 0.9474): 723.2 ± 4 kg/m3
- mass density (308.15 K, 5000 kPa, x2 = 0.0513): 841.3 ± 4 kg/m3
- mass density (308.15 K, 5000 kPa, x2 = 0.0971): 832.6 ± 4 kg/m3
- mass density (308.15 K, 5000 kPa, x2 = 0.1962): 815.2 ± 4 kg/m3
- mass density (308.15 K, 5000 kPa, x2 = 0.2932): 799.9 ± 4 kg/m3
- mass density (308.15 K, 5000 kPa, x2 = 0.3942): 787.7 ± 4 kg/m3
- mass density (308.15 K, 5000 kPa, x2 = 0.4987): 772.1 ± 4 kg/m3
- mass density (308.15 K, 5000 kPa, x2 = 0.5563): 765.2 ± 4 kg/m3
- mass density (308.15 K, 5000 kPa, x2 = 0.5965): 760.6 ± 4 kg/m3
- mass density (308.15 K, 5000 kPa, x2 = 0.7018): 749.6 ± 4 kg/m3
- mass density (308.15 K, 5000 kPa, x2 = 0.8047): 739.4 ± 4 kg/m3
- mass density (308.15 K, 5000 kPa, x2 = 0.8975): 731.3 ± 4 kg/m3
- mass density (308.15 K, 5000 kPa, x2 = 0.9474): 726.8 ± 4 kg/m3
- mass density (308.15 K, 10000 kPa, x2 = 0.0513): 844.9 ± 4 kg/m3
- mass density (308.15 K, 10000 kPa, x2 = 0.0971): 836.5 ± 4 kg/m3
- mass density (308.15 K, 10000 kPa, x2 = 0.1962): 819.1 ± 4 kg/m3
- mass density (308.15 K, 10000 kPa, x2 = 0.2932): 803.7 ± 4 kg/m3
- mass density (308.15 K, 10000 kPa, x2 = 0.3942): 791.4 ± 4 kg/m3
- mass density (308.15 K, 10000 kPa, x2 = 0.4987): 776.1 ± 4 kg/m3
- mass density (308.15 K, 10000 kPa, x2 = 0.5563): 769.3 ± 4 kg/m3
- mass density (308.15 K, 10000 kPa, x2 = 0.5965): 764.5 ± 4 kg/m3
- mass density (308.15 K, 10000 kPa, x2 = 0.7018): 753.5 ± 4 kg/m3
- mass density (308.15 K, 10000 kPa, x2 = 0.8047): 743.3 ± 4 kg/m3
- mass density (308.15 K, 10000 kPa, x2 = 0.8975): 734.8 ± 4 kg/m3
- mass density (308.15 K, 10000 kPa, x2 = 0.9474): 730.9 ± 4 kg/m3
- mass density (308.15 K, 20000 kPa, x2 = 0.0513): 851.9 ± 4 kg/m3
- mass density (308.15 K, 20000 kPa, x2 = 0.0971): 843.4 ± 4 kg/m3
- mass density (308.15 K, 20000 kPa, x2 = 0.1962): 826 ± 4 kg/m3
- mass density (308.15 K, 20000 kPa, x2 = 0.2932): 810.6 ± 4 kg/m3
- mass density (308.15 K, 20000 kPa, x2 = 0.3942): 798.6 ± 4 kg/m3
- mass density (308.15 K, 20000 kPa, x2 = 0.4987): 783.3 ± 4 kg/m3
- mass density (308.15 K, 20000 kPa, x2 = 0.5563): 776.4 ± 4 kg/m3
- mass density (308.15 K, 20000 kPa, x2 = 0.5965): 771.7 ± 4 kg/m3
- mass density (308.15 K, 20000 kPa, x2 = 0.7018): 760.6 ± 4 kg/m3
- mass density (308.15 K, 20000 kPa, x2 = 0.8047): 750.3 ± 4 kg/m3
- mass density (308.15 K, 20000 kPa, x2 = 0.8975): 741.9 ± 4 kg/m3
- mass density (308.15 K, 20000 kPa, x2 = 0.9474): 737.9 ± 4 kg/m3
- mass density (308.15 K, 30000 kPa, x2 = 0.0513): 858.8 ± 4 kg/m3
- mass density (308.15 K, 30000 kPa, x2 = 0.0971): 849.8 ± 4 kg/m3
- mass density (308.15 K, 30000 kPa, x2 = 0.1962): 832.7 ± 4 kg/m3
- mass density (308.15 K, 30000 kPa, x2 = 0.2932): 817.4 ± 4 kg/m3
- mass density (308.15 K, 30000 kPa, x2 = 0.3942): 805.2 ± 4 kg/m3
- mass density (308.15 K, 30000 kPa, x2 = 0.4987): 789.9 ± 4 kg/m3
- mass density (308.15 K, 30000 kPa, x2 = 0.5563): 783 ± 4 kg/m3
- mass density (308.15 K, 30000 kPa, x2 = 0.5965): 778.2 ± 4 kg/m3
- mass density (308.15 K, 30000 kPa, x2 = 0.7018): 767 ± 4 kg/m3
- mass density (308.15 K, 30000 kPa, x2 = 0.8047): 757 ± 4 kg/m3
- mass density (308.15 K, 30000 kPa, x2 = 0.8975): 748.5 ± 4 kg/m3
- mass density (308.15 K, 30000 kPa, x2 = 0.9474): 744.4 ± 4 kg/m3
- mass density (308.15 K, 40000 kPa, x2 = 0.0513): 865.1 ± 4 kg/m3
- mass density (308.15 K, 40000 kPa, x2 = 0.0971): 856 ± 4 kg/m3
- mass density (308.15 K, 40000 kPa, x2 = 0.1962): 838.9 ± 4 kg/m3
- mass density (308.15 K, 40000 kPa, x2 = 0.2932): 823.6 ± 4 kg/m3
- mass density (308.15 K, 40000 kPa, x2 = 0.3942): 811.3 ± 4 kg/m3
- mass density (308.15 K, 40000 kPa, x2 = 0.4987): 795.9 ± 4 kg/m3
- mass density (308.15 K, 40000 kPa, x2 = 0.5563): 789.1 ± 4 kg/m3
- mass density (308.15 K, 40000 kPa, x2 = 0.5965): 785 ± 4 kg/m3
- mass density (308.15 K, 40000 kPa, x2 = 0.7018): 773.3 ± 4 kg/m3
- mass density (308.15 K, 40000 kPa, x2 = 0.8047): 763.1 ± 4 kg/m3
- mass density (308.15 K, 40000 kPa, x2 = 0.8975): 755.1 ± 4 kg/m3
- mass density (308.15 K, 40000 kPa, x2 = 0.9474): 750.9 ± 4 kg/m3
